Laboratory results taken from PMC11240139, “Exploring the antitumor potential of novel quinoline derivatives via tubulin polymerization inhibition in breast cancer; design, synthesis and molecular docking” (RSC Advances, 2024).

Experiments:
Assay type in all cases: cell-based
[1] = system: CCRF-CEM (leukemia); assay: NCI-60 SRB cytotoxicity screen; details: Homo sapiens, single dose 10 μM, read-out: growth inhibition (GI%)
[2] = system: MOLT-4 (leukemia); assay: NCI-60 SRB cytotoxicity screen; details: Homo sapiens; MOLT-4, single dose 10 μM; read-out: growth inhibition (GI%)
[3] = system: EKVX (non-small cell lung cancer); assay: NCI-60 SRB cytotoxicity screen; details: Homo sapiens, single dose 10 μM, read-out: growth inhibition (GI%)
[4] = system: HCT-15 (colon cancer); assay: NCI-60 SRB cytotoxicity screen; details: Homo sapiens; HCT-15, single dose 10 μM; read-out: growth inhibition (GI%)
[5] = system: HT29 (colon cancer); assay: NCI-60 SRB cytotoxicity screen; details: Homo sapiens, HT-29; HT29, single dose 10 μM; read-out: growth inhibition (GI%)
[6] = system: SW-620 (colon cancer); assay: NCI-60 SRB cytotoxicity screen; details: Homo sapiens; SW-620, single dose 10 μM; read-out: growth inhibition (GI%)
[7] = system: SF-268 (CNS cancer); assay: NCI-60 SRB cytotoxicity screen; details: Homo sapiens; SF-268, single dose 10 μM; read-out: growth inhibition (GI%)
[8] = system: SF-295 (CNS cancer); assay: NCI-60 SRB cytotoxicity screen; details: Homo sapiens; SF-295, single dose 10 μM; read-out: growth inhibition (GI%)
[9] = system: SF-539 (CNS cancer); assay: NCI-60 SRB cytotoxicity screen; details: Homo sapiens; SF-539, single dose 10 μM; read-out: growth inhibition (GI%)
[10] = system: SNB-19 (CNS cancer); assay: NCI-60 SRB cytotoxicity screen; details: Homo sapiens; SNB-19, single dose 10 μM; read-out: growth inhibition (GI%)
[11] = system: MALME-3M (melanoma); assay: NCI-60 SRB cytotoxicity screen; details: Homo sapiens, single dose 10 μM, read-out: growth inhibition (GI%)
[12] = system: UACC-257 (melanoma); assay: NCI-60 SRB cytotoxicity screen; details: Homo sapiens; UACC-257, single dose 10 μM; read-out: growth inhibition (GI%)
[13] = system: IGROV1 (ovarian cancer); assay: NCI-60 SRB cytotoxicity screen; details: Homo sapiens, IGROV-1; IGROV1, single dose 10 μM; read-out: growth inhibition (GI%)
[14] = system: OVCAR-3 (ovarian cancer); assay: NCI-60 SRB cytotoxicity screen; details: Homo sapiens; OVCAR-3, single dose 10 μM; read-out: growth inhibition (GI%)
[15] = system: OVCAR-4 (ovarian cancer); assay: NCI-60 SRB cytotoxicity screen; details: Homo sapiens; OVCAR-4, single dose 10 μM; read-out: growth inhibition (GI%)
[16] = system: OVCAR-5 (ovarian cancer); assay: NCI-60 SRB cytotoxicity screen; details: Homo sapiens; OVCAR-5, single dose 10 μM; read-out: growth inhibition (GI%)
[17] = system: NCI/ADR-RES (ovarian cancer); assay: NCI-60 SRB cytotoxicity screen; details: Homo sapiens, single dose 10 μM, read-out: growth inhibition (GI%)
[18] = system: SK-OV-3 (ovarian cancer); assay: NCI-60 SRB cytotoxicity screen; details: Homo sapiens; SK-OV-3, single dose 10 μM; read-out: growth inhibition (GI%)
[19] = system: RXF 393 (renal cancer); assay: NCI-60 SRB cytotoxicity screen; details: Homo sapiens; RXF 393, single dose 10 μM; read-out: growth inhibition (GI%)
[20] = system: MCF7 (breast cancer); assay: NCI-60 SRB cytotoxicity screen; details: Homo sapiens; MCF7, single dose 10 μM; read-out: growth inhibition (GI%)
[21] = system: MDA-MB-231/ATCC (breast cancer); assay: NCI-60 SRB cytotoxicity screen; details: Homo sapiens, MDA-MB-231, read-out: growth inhibition (GI%);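 note: growth inhibition in percent at a single 10 µM dose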
[22] = system: BT-549 (breast cancer); assay: NCI-60 SRB cytotoxicity screen; details: Homo sapiens; BT-549, single dose 10 μM; read-out: growth inhibition (GI%)
[23] = system: T-47D (breast cancer); assay: NCI-60 SRB cytotoxicity screen; details: Homo sapiens, T47D, single dose 10 μM, read-out: growth inhibition (GI%)
[24] = system: MDA-MB-468 (breast cancer); assay: NCI-60 SRB cytotoxicity screen; details: Homo sapiens; MDA-MB-468, single dose 10 μM; read-out: growth inhibition (GI%)
Description: (§1) The cytotoxic activity of the synthesized quinoline derivatives was determined by the national cancer institute (NCI, Bethesda, Maryland, USA) against 60 different cancer cell lines at a single high dose (10^−5 M) in the full NCI 60 cell panel using the sulforhodamine B assay for cell viability evaluation. In summary, 5 × 10^3 cells were in 96-well plate and incubated in complete media for 24 h. Cells were treated with 100 μL of media containing each newly synthesized compound. After drug exposure, cells were fixed by replacing media with 150 μL of 10% TCA and incubated at 4 °C for 1 h. The TCA solution was removed, and the cells were washed 5 times with distilled water. Aliquots of 70 μL SRB solution (0.4% w/v) were added and incubated in a dark place at room temperature for 10 min. The plates were washed 3 times with 1% acetic acid and allowed to air-dry overnight. Then, 150 μL of TRIS (10 mM) was added to dissolve protein-bound SRB stain. The absorbance was measured at 540 nm.% Cytotoxicity = [1 − (AVx/AVNC)] × 100where AVx denotes the average absorbance of the sample well and AVNC denotes the average absorbance of the negative control.
The methodology of the NCI anticancer screening has been described in details at (http://www.dtp.nci.nih.gov). The anticancer assay was performed in full NCI 60 cell lines derived from nine tumor subpanels, including leukemia, lung, colon, CNS, melanoma, ovarian, renal, prostate, and breast cancer cell lines.
The cell lines were first cultured for 48 h, after being exposed to a single dosage of the compound. Using the protein-binding dye sulforhodamine B dye, cell proliferation and viability were evaluated (SRB assay). The results were presented for each chemical as GI%. Compound that met NCI criteria for substantial activity were further evaluated using a five-dose experiment. The NCI60 cell lines were treated with the chemicals in this assay at five different concentration levels (0.01, 0.1, 1, 10, and 100 μM).

[25] = system: 60 cancer cell lines (NCI); assay: NCI-60 single-dose screen, overall verdict over the panel; details: single dose 10 μM, whole panel
Description: as §1

SMILES	inhibition at 10 µM [1]	inhibition at 10 µM [2]	inhibition at 10 µM [3]	inhibition at 10 µM [4]	inhibition at 10 µM [5]	inhibition at 10 µM [6]	inhibition at 10 µM [7]	inhibition at 10 µM [8]	inhibition at 10 µM [9]	inhibition at 10 µM [10]	inhibition at 10 µM [11]	inhibition at 10 µM [12]	inhibition at 10 µM [13]	inhibition at 10 µM [14]	inhibition at 10 µM [15]	inhibition at 10 µM [16]	inhibition at 10 µM [17]	inhibition at 10 µM [18]	inhibition at 10 µM [19]	inhibition at 10 µM [20]	further results
CCc1cccc2cc(C=CC(=O)c3ccc(Br)cc3)c(Cl)nc12 [Compound 3e, 1-(4-Bromophenyl)-3-(2-chloro-8-ethylquinolin-3-yl)prop-2-en-1-one]	< 10%	< 10%	< 10%	< 10%	< 10%	< 10%	< 10%	< 10%	< 10%	< 10%	< 10%	< 10%	< 10%	< 10%	< 10%	< 10%	< 10%	< 10%	< 10%	< 10%	inhibition at 10 µM [21]: < 10%; inhibition at 10 µM [22]: < 10%; inhibition at 10 µM [23]: < 10%; inhibition at 10 µM [24]: < 10%; cytotoxic activity over the cell lines (in words) [25]: low cytotoxic activity
CCc1cccc2cc(-c3cc(-c4ccc(Br)cc4)[nH]c(=O)c3C#N)c(Cl)nc12 [Compound 4e, 6-(4-Bromophenyl)-4-(2-chloro-8-ethylquinolin-3-yl)-2-oxo-1,2-dihydropyridine-3-carbonitrile]	< 10%	< 10%	< 10%	< 10%	< 10%	< 10%	< 10%	< 10%	< 10%	< 10%	< 10%	< 10%	< 10%	< 10%	10.8%	< 10%	< 10%	11.7%	< 10%	20.6%	inhibition at 10 µM [21]: < 10%; inhibition at 10 µM [22]: 27.7%; inhibition at 10 µM [23]: < 10%; inhibition at 10 µM [24]: < 10%; cytotoxic activity over the cell lines (in words) [25]: mild cytotoxic activity
CCc1cccc2cc(-c3cc(-c4ccc(Br)cc4)[nH]c(=S)c3C#N)c(Cl)nc12 [Compound 5e, 6-(4-Bromophenyl)-4-(2-chloro-8-ethylquinolin-3-yl)-2-thioxo-1,2-dihydropyridine-3-carbonitrile]	< 10%	< 10%	< 10%	< 10%	< 10%	< 10%	< 10%	< 10%	< 10%	< 10%	< 10%	< 10%	< 10%	< 10%	< 10%	< 10%	< 10%	11.2%	< 10%	19.7%	inhibition at 10 µM [21]: 12.9%; inhibition at 10 µM [22]: < 10%; inhibition at 10 µM [23]: 10.4%; inhibition at 10 µM [24]: < 10%; cytotoxic activity over the cell lines (in words) [25]: slight cytotoxic activity
CCc1cccc2cc(C3C=C(c4ccc(OC)cc4)NC(=S)N3)c(Cl)nc12 (centres unmarked) [Compound 6a, 4-(2-Chloro-8-ethylquinolin-3-yl)-6-(4-methoxyphenyl)-3,4-dihydropyrimidine-2(1H)-thione]	< 10%	< 10%	< 10%	< 10%	< 10%	< 10%	< 10%	< 10%	< 10%	< 10%	< 10%	< 10%	< 10%	< 10%	< 10%	< 10%	< 10%	14.9%	< 10%	< 10%	inhibition at 10 µM [21]: < 10%; inhibition at 10 µM [22]: < 10%; inhibition at 10 µM [23]: < 10%; inhibition at 10 µM [24]: < 10%; cytotoxic activity over the cell lines (in words) [25]: limited cytotoxic activity
CCc1cccc2cc(C3C=C(c4ccc(Br)cc4)NC(=S)N3)c(Cl)nc12 (centres unmarked) [Compound 6e, 6-(4-Bromophenyl)-4-(2-chloro-8-ethylquinolin-3-yl)-3,4-dihydropyrimidine-2(1H)-thione]	< 10%	26.2%	< 10%	< 10%	11.9%	< 10%	< 10%	< 10%	< 10%	< 10%	< 10%	< 10%	< 10%	< 10%	10.2%	< 10%	< 10%	10.7%	< 10%	18.4%	inhibition at 10 µM [21]: < 10%; inhibition at 10 µM [22]: < 10%; inhibition at 10 µM [23]: < 10%; inhibition at 10 µM [24]: < 10%; cytotoxic activity over the cell lines (in words) [25]: limited cytotoxic activity
